Values belong to the molecule of their own block, whether it stands above or below them.
Experiments:
[1] = target: T1, Purine nucleoside phosphorylase (Homo sapiens) (UniProt P00491); experiment: Binding affinity to human PNP assessed as kinetic isotope effect; settings: tested as the 3H-labelled form
T1 sequence (whole entry): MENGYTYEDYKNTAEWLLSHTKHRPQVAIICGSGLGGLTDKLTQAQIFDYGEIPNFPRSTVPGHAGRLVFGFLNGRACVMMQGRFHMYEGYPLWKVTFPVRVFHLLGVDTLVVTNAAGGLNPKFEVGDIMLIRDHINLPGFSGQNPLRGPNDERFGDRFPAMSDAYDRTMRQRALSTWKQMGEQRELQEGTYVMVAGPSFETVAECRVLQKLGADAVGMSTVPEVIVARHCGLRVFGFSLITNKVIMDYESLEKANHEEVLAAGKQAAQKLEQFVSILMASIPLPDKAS

[2] = target: T2, Purine nucleoside phosphorylase (Homo sapiens, UniProt P00491); experiment: Binding affinity to human PNP
T2 sequence (P00491 whole entry): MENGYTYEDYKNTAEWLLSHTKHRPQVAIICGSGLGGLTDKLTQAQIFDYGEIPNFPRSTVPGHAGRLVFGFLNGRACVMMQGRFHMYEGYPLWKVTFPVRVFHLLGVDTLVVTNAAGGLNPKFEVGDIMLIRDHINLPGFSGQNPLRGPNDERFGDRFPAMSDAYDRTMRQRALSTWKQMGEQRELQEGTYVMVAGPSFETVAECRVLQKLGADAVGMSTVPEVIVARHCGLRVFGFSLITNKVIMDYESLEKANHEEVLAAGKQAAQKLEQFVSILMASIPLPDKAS

[3] = substrate: O=c1[nH]cnc2c1ncn2[C@@H]1O[C@H](CO)[C@@H](O)[C@H]1O; experiment: Activity at human PNP

Activity [1]: 4.7%
Molecule: O=c1[nH]cnc2c1ncn2[C@@H]1O[C@H](CO)[C@@H](O)[C@H]1O

Molecule: [3H]C(O)[C@H]1CN(Cc2c[nH]c3c(=O)[nH]cnc23)C[C@@H]1O (stereo partly drawn)
Kd [2]: 8.5 pM

B1: Purine nucleoside phosphorylase (Homo sapiens), P00491 (protein)
chain: MENGYTYEDYKNTAEWLLSHTKHRPQVAIICGSGLGGLTDKLTQAQIFDYGEIPNFPRSTVPGHAGRLVFGFLNGRACVMMQGRFHMYEGYPLWKVTFPVRVFHLLGVDTLVVTNAAGGLNPKFEVGDIMLIRDHINLPGFSGQNPLRGPNDERFGDRFPAMSDAYDRTMRQRALSTWKQMGEQRELQEGTYVMVAGPSFETVAECRVLQKLGADAVGMSTVPEVIVARHCGLRVFGFSLITNKVIMDYESLEKANHEEVLAAGKQAAQKLEQFVSILMASIPLPDKAS
Km [3]: 40 µM

Source: ChEMBL document CHEMBL1212725, “Enzymatic transition states and dynamic motion in barrier crossing” (Nat Chem Biol, 2009)
